According to publication PMC12469269, “Investigating SMR Peptide Interactions with Breast Cancer-Associated Proteins” (International Journal of Molecular Sciences, 2025):
Entries after “also recorded” stand apart in the source; their conditions may differ.

What was measured:
[1] = molecular target: T1, Recombinant Human Vimentin Protein (Homo sapiens, UniProt P08670); assay: biochemical; format: binding; details: SPR, 25 °C, HBS-P pH 7.4
T1 construct: purchased Novus Biologicals, LLC/R&D Systems 2105-VI-100
T1 sequence (P08670 whole entry): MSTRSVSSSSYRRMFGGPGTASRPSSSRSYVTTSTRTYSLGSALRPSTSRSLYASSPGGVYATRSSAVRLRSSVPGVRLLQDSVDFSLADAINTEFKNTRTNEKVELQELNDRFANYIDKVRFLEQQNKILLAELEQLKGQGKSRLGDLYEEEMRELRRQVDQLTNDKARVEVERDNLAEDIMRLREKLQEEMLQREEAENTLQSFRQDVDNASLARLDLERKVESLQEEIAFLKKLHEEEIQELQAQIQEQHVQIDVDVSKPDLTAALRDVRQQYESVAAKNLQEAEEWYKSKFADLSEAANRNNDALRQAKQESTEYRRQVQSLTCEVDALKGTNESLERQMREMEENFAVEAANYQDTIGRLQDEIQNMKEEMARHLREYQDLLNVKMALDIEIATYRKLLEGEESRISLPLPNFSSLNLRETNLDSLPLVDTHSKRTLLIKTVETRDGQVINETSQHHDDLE
Source text: (§1) We conducted SPR experiments to characterize and quantify the direct binding interactions between Nef and SMR peptides (the analytes) and the target proteins, Vimentin and Mortalin (the immobilized ligands). We did so by injecting the analytes at various concentrations over the chip surface with the immobilized ligands.
(§2) Recombinant Human Vimentin Protein, CF (catalog # 2105-VI-100), Recombinant Human GRP75/HSPA9B/Mortalin His Protein (catalog # NBC1-18380), and Recombinant Human HSPA8/HSC71/Hsc70 His Protein (Catalog # NBPI-30278) were purchased from Novus Biologicals, LLC/R&D Systems, Centennial, CO, USA. These proteins were used for SPR.
(§3) SPR experiments were conducted using a Biacore T200 instrument (Cytiva, Marlborough, MA, USA). CM5 sensor chips (Cytiva) were used to immobilize proteins and run subsequent binding assays at 25 °C. To investigate the direct binding of Nef and SMR peptides to Vimentin and Mortalin and SMR competition studies, both proteins were immobilized as ligands on the active flow cells (FCs) using standard amine coupling chemistry. One reference FC was prepared using the same surface chemistry, and no proteins were immobilized onto this reference FC. Vimentin was immobilized to a level of ~2500 RU to 7200 RU in the presence of 4 mM of HCl and Mortalin to a level of ~11,900 RU to 13,200 RU in the presence of 10 mM of sodium acetate buffer at pH 4.5. Analytes were then injected (Nef, SMR peptides, Mortalin peptides, and mixtures of […]). One 20 s pulse of 1:500 H3PO4 (H3PO4:ddH2O) was injected for surface regeneration. To investigate the direct binding of Mortalin peptides to Nef, Nef was immobilized as a ligand to ~450 RU using thiol coupling chemistry. A reference FC was created using a method similar to the one above. Mortalin peptides were then injected as analytes. One 20 s pulse of 1 M NaCl was injected for surface regeneration. HBS-P (10 mM Hepes, pH 7.4; 150 mM NaCl; 0.05% surfactant P20) was used as the immobilization running buffer during the immobilization of all ligands. HBS-P was also used to dilute analytes and as a running buffer during all analyte–ligand binding assays. SPR data used for analysis was both blank (signals due to HBS-P only) and reference-subtracted (signals corresponding to reference FCs). Sensorgrams recorded for kinetics analyses were fitted to a 1:1 binding model using the Biacore T200 evaluation software version 3.2.1. GraphPad Prism version 10.4.0 was used to plot all graphs.

[2] = molecular target: T2, Recombinant Human GRP75/HSPA9B/Mortalin His Protein (Homo sapiens, UniProt P38646); assay: biochemical; format: binding; details: SPR, 25 °C, HBS-P pH 7.4
T2 construct: His; purchased Novus Biologicals, LLC/R&D Systems NBC1-18380
T2 sequence (P38646 47-679): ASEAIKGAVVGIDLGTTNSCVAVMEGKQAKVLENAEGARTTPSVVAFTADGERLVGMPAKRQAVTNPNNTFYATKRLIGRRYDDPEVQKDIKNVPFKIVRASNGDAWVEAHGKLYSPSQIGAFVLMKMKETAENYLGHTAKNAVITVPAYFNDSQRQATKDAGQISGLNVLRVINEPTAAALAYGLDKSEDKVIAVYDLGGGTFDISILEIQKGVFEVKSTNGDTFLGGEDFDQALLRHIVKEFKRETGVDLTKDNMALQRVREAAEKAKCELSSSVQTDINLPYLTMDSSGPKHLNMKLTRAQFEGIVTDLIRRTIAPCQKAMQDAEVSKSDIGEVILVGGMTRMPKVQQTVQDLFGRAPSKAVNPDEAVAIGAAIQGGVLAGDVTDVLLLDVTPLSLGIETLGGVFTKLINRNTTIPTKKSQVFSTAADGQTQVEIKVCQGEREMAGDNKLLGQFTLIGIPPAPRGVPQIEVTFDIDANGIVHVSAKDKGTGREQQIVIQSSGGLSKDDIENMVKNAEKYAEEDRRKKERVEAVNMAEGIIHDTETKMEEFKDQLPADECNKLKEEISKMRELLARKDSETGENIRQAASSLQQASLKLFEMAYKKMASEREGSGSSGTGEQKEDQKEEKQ
Source text: as §1, §2, §3

Vimentin = assay: SPR competition: SMRwt binding to immobilized Vimentin with Mortalin peptides; set-up: species or system Human; details: 20 µM SMRwt + 20 µM Mortalin peptide, 25 °C, HBS-P pH 7.4
Protocol: (§4) Both Vimentin and Mortalin were immobilized as ligands. We used 20 µM of SMRwt alone and 20 µM of Mortalin peptides alone, and their mixtures were used as analytes.
(§5) Figure 9 Competitive binding of SMR and Mortalin peptides to Vimentin and Mortalin proteins. Binding of SMRwt to immobilized Vimentin in the presence and absence of (A) Mortalin peptide #56, (B) Mortalin peptide #61, and (C) Mortalin peptide #62. Binding of SMRwt to immobilized Mortalin in the presence and absence of (D) Mortalin peptide #56, (E) Mortalin peptide #61, and (F) Mortalin peptide #62. SMRwt alone, as well as a mixture of His-tagged Mortalin peptides #56, #61, and #62 were injected as analytes to flow over the immobilized ligand surfaces. […] Vimentin and Mortalin proteins were immobilized as ligands on a CM5 sensor chip using standard amine coupling chemistry.
(§6) SPR experiments were conducted using a Biacore T200 instrument (Cytiva, Marlborough, MA, USA). CM5 sensor chips (Cytiva) were used to immobilize proteins and run subsequent binding assays at 25 °C. To investigate the direct binding of Nef and SMR peptides to Vimentin and Mortalin and SMR competition studies, both proteins were immobilized as ligands on the active flow cells (FCs) using standard amine coupling chemistry. […] Sensorgrams recorded for kinetics analyses were fitted to a 1:1 binding model using the Biacore T200 evaluation software version 3.2.1. […]

Mortalin = assay: SPR competition: SMRwt binding to immobilized Mortalin with Mortalin peptides; set-up: species or system Human; details: 20 µM SMRwt + 20 µM Mortalin peptide, 25 °C, HBS-P pH 7.4
Protocol: as §4, §5, §6

MDA-MB-231 cells = assay: Tumor exosome secretion, Mortalin scanning peptides (Figure 5B), MDA-MB-231; format: cell-based, human; details: MDA-MB-231 exosome experiment

Row | Substance | binding response to Vimentin, in words [1] | binding to Mortalin, in words [2] | inhibition of SMRwt–Vimentin binding, in words (Vimentin; listed as Mortalin #61) | inhibition of SMRwt–Vimentin binding, in words (Vimentin; listed as Mortalin peptide #61) | inhibition of SMRwt–Mortalin binding, in words (Mortalin; listed as Mortalin #61) | inhibition of SMRwt–Mortalin binding, in words (Mortalin; listed as Mortalin peptide #61) | cluster formation (MDA-MB-231 cells)
1 | ^66Ala-Gly-Phe-Pro-Val^70 [SMRmut, 5-mer negative control, Val66 changed to Ala] | did not produce a meaningful positive binding response to Vimentin and Mortalin | did not produce a meaningful positive binding response to Vimentin and Mortalin; also recorded: does not bind to the Mortalin protein |  |  |  |  | 
2 | DQLPADECNKLKEEISKMRE [#61, Mortalin scanning peptide 61] |  |  | effectively compete with SMRwt to block its interaction with the Mortalin or Vimentin protein | inhibited SMRwt binding to both Mortalin and Vimentin; also recorded: completely blocks the 20 µM SMRwt from binding to both Vimentin and Mortalin; also recorded: completely inhibited complex formation between SMRwt and Vimentin | effectively compete with SMRwt to block its interaction with the Mortalin or Vimentin protein | inhibited SMRwt binding to both Mortalin and Vimentin; also recorded: completely blocks the 20 µM SMRwt from binding to both Vimentin and Mortalin; also recorded: complete inhibition | formed small clusters
